Consider 14 compounds from patent US8785493B2, “Treatment of retroviral reservoirs exploiting oxidative stress” (Istituto Superiore di Sanita, priority 2008, dated 2014).

The test system of series [1] is HIV-1 replication in latently HIV-1 infected lymphocytic ACH-2 cells. Format: cell-based. Conditions: for Induction of HIV-1 replication by the agent alone, ACH-2 cells: data not shown.
Series [2] concerns HIV-1 replication in latently HIV-1 infected monocytoid U1 cells. Type of series: cell-based.
For series [3], the system named is HIV-1 LTR in Jurkat A1 cells. Format: cell-based.
The target of another series is Maize HD1-B (Zea mays, UniProt Q9ZTP8). Nature of the series: Maize HD1-B enzyme inhibition in vitro. Format: biochemical. The method, then: (§1) Maize HD2, HD1-B, and HD1-A Enzyme Inhibition in Vitro. Radioactively labelled chicken core histones were used as the enzyme substrate according to established procedures [referenced in: Mai et al., 2006]. The enzyme liberated tritiated acetic acid from the substrate, which was quantified by scintillation counting. The IC50 values are the results of triple determinations. A 50 μL sample of maize enzyme (at 30° C.) was incubated (30 min) with 10 microL of total [^3H]acetate-prelabelled chicken reticulocyte histones (2 mg/mL). The reaction was stopped by the addition of 36 microL of 1 M HCl/0.4 M acetate and 800 microL of ethyl acetate. After centrifugation (10 000 g, 5 min), an aliquot of 600 microL of the upper phase was counted for radioactivity in 3 mL of liquid scintillation cocktail. The compounds were tested at a starting concentration of 40 microM, and active substances were diluted further. TSA and SAHA were used as the reference compounds, and blank solvents were used as negative controls [Mai et al. 2006].
Maize HD1-B, sequence (Q9ZTP8 entry or part of it): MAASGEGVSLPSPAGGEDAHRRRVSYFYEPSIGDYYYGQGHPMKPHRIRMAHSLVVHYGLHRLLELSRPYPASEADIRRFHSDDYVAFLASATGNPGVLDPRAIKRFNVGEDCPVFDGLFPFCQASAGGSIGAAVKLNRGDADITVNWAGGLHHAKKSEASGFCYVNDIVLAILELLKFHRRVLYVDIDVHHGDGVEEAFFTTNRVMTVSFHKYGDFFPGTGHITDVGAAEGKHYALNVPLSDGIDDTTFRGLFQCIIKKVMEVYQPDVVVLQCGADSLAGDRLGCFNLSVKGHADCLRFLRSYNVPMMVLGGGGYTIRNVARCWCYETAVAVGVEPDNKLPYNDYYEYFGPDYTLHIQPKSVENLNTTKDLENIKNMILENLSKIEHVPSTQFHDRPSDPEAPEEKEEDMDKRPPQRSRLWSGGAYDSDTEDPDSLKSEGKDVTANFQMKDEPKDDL

The target in another series is Maize HD1-A (Zea mays, UniProt Q7XAX9). Nature of the series: Maize HD1-A enzyme inhibition in vitro. Format: biochemical. The protocol: as §1
Maize HD1-A, sequence (Q7XAX9 entry or part of it): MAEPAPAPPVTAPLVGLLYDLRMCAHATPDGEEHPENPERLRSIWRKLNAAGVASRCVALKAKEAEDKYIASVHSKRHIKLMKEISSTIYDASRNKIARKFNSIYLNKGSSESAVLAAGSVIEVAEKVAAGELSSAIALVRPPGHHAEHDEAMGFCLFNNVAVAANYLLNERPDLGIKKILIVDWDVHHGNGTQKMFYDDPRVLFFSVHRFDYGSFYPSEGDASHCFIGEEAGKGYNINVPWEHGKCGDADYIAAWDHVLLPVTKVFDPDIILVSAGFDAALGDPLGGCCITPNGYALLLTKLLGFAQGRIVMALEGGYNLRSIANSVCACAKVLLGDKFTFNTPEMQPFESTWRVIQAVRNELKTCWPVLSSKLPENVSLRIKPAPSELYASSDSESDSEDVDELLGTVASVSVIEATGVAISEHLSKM
Another series addresses mouse HDAC1 (Mus musculus, UniProt O09106). Nature of the series: Mouse HDAC1 enzyme assay. Format: biochemical. The protocol: Mouse HDAC1 Enzyme Assay. […] HDAC activity was determined using [^3H]acetate-prelabelled chicken reticulocyte histones as the substrate. Mouse HDAC1 (50 microL) was incubated with different concentrations of compounds for 15 min on ice, and 10 μL of total [^3H]acetate-prelabelled chicken reticulocyte histones (2 mg/mL) were added, resulting in a concentration of 41 microM. The mixture was incubated at 37° C. for 1 h. The reaction was stopped by the addition of 50 microL of 1 M HCl/0.4 M acetylacetate and 1 mL ethyl acetate. After centrifugation at 10 000 g for 5 min, an aliquot of 600 microL of the upper phase was counted for radioactivity in a 3 mL liquid scintillation cocktail [Mai et al., 2006].

Another series concerns the target IP HDAC1 (Homo sapiens, UniProt Q13547). Nature of the series: Human HDAC1 assay on immunoprecipitate (IP) from U937 cells. Format: biochemical. The protocol: (§2) Cell-Based Human HDAC1 and HDAC4 Assays. […] Then, 1000 micrograms of extracts were diluted in IP buffer up to 1 mL and pre-cleared by incubating with 20 microL of A/G plus Agarose (Santa Cruz) for 30 min to 1 h on a rocking table at 4° C. Supernatants were transferred into a new tube, and the antibodies (around 3 to 4 μg) were added and IP was allowed to proceed overnight at 4° C. on a rocking table. The antibodies used were HDAC1 (Abcam) and HDAC4 (Sigma). As the negative control, the same amount of protein extracts were immunoprecipitated with the corresponding purified IgG (Santa Cruz). On the next day, 20 microL of A/G and Agarose (Santa Cruz) were added to each IP, and incubation was continued for 2 h. The beads were recovered by brief centrifugation and washed with cold IP buffer several times. The samples were than washed twice in PBS and re-suspended in 20 microL of sterile PBS. The HDAC assay was carried out according to the supplier's instructions (Upstate). Briefly, samples immunoprecipitated with the HDAC4 and HDAC1 or with purified IgG were pooled separately to homogenise all samples. Then, 10 microL of the IP was incubated with a previously labelled ^3H-Histone H4 peptide linked with streptavidine agarose beads (Upstate). In detail, 120 000 CPM of the H4-^3H-acetyl-peptide was used for each tube and incubated in 1 HDAC buffer with 10 microL of the sample in the presence or absence of HDAC inhibitors with a final volume of 200 μL. Those samples were incubated overnight at 37° C. in slow rotation. On the next day, 50 μL of a quenching solution was added, and 100 microL of the samples were counted in duplicate after brief centrifugation in a scintillation counter.

Another series deals with IP HDAC4 (Homo sapiens, UniProt P56524). Type of series: biochemical. The protocol: as §2
IP HDAC4, sequence (P56524 whole entry): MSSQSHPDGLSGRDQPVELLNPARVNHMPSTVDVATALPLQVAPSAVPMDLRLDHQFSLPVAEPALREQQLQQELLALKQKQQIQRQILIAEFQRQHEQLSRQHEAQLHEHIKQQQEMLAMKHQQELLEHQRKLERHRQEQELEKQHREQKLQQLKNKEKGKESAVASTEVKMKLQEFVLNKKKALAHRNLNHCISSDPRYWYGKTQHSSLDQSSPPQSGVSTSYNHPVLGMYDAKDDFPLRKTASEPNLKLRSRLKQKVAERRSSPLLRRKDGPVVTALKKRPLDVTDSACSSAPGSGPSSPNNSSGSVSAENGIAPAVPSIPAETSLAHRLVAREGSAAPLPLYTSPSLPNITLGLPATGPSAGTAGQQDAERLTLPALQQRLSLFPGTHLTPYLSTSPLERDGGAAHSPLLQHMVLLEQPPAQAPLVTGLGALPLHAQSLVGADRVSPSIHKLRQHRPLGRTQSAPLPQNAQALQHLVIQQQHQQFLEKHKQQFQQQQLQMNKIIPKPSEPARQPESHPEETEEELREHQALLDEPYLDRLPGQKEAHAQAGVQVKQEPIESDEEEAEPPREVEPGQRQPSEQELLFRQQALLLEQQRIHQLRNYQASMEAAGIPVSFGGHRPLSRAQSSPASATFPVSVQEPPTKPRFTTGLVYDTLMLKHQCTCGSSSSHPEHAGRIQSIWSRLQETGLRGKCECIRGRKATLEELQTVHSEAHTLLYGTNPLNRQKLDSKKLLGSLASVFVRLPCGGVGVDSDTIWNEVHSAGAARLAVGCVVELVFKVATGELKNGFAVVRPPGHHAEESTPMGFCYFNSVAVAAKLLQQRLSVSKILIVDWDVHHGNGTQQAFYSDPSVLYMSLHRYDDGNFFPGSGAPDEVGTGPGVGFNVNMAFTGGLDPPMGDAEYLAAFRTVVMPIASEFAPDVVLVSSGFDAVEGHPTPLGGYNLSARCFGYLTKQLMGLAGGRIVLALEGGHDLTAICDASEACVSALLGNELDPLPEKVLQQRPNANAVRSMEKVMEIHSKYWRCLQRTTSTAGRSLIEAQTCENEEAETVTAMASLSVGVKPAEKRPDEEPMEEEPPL
In the next series the test system is HDACs. Put plainly: HDAC class selectivity (HDACs inhibited). Type of series: biochemical. Conditions: Class 1 selective or NS (non-selective).
Series [4] relates to Non-infected H9 and U937, HIV-1 infected H9IIIB, ACH-2 and U1 cells. Nature of the series: Selective killing, MTT cell viability, infected versus non-infected cells. Format: cell-based. Conditions: seven days. From the text:
Cell viability assay. Cell viability was quantitated using the highly standardised methyl tetrazolium (MTT) procedure (described in detail in: Savarino A, Calosso L, Piragino A, Martini C, Gennero L, Pescarmona G P, Pugliese A. Modulation of surface transferrin receptors in lymphoid cells de novo infected with human immunodeficiency virus type-1. Cell Biochem Funct. 1999 March; 17(1):47-55). Absorbance values were generated at a wavelength of 450 nm using 96-well ELISA readers and subtracted of the blank values using cell culture media in the absence of cells. Cell viability in the presence of the test compounds was expressed as a percentage of the cell viability of control untreated cell cultures. For testing of selective killing, Non-infected H9, and U937, and HIV-1 infected HIIIB, ACH-2, and U1 cells were incubated with the test compounds for seven days, and cell viability was measured as described above.

The next series relates to latent HIV-1. As to conditions: cited from earlier work.
Series [5] deals with HIV-1 LTR in quiescently infected Jurkat 8.4 cells. Nature of the series: HIV-1 LTR-controlled GFP expression, flow cytometry, Jurkat clone 8.4. Type of series: cell-based. Conditions: 72 h, gated live cells. A general note: A flow cytometer gives signals particle by particle.

Read-outs that look alike come from different tables or passages of the source.

IP HDAC1, sequence (Q13547 whole entry): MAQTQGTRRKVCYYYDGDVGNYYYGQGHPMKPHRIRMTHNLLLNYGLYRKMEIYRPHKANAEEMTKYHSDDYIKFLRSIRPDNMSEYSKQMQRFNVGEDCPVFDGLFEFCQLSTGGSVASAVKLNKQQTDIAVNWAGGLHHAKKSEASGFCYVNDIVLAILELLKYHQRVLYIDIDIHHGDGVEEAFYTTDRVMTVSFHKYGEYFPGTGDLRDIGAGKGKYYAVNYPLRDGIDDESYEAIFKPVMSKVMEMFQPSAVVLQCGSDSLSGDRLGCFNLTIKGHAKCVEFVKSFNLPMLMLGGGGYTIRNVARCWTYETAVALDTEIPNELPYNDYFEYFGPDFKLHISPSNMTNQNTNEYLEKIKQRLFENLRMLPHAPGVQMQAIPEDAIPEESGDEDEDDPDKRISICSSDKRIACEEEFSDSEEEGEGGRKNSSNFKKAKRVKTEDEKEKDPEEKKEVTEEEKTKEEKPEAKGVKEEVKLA
mouse HDAC1, sequence (O09106 whole entry): as the sequence (Q13547 whole entry) above, with R8K, D399E, E424D counted along it

In the case of `CCCCS(=N)(=O)CCC(N)C(=O)O` (stereo not drawn) [BSO, buthionine sulfoximine], in series [1] (concentrations up to 500 μM), the “Induction of HIV-1 replication by the agent alone, ACH-2 cells” value (from here on “Induction … ACH-2 cells”) was “had no effect”. For the same compound, the “Induction … ACH-2 cells” value in series [1] is reported as “did not significantly induce HIV-1 replication”. Also, the “Induction of HIV-1 replication by the agent alone, U1 cells” value in series [2] (data not shown) was “did not significantly induce HIV-1 replication”. In [3] (72 h), the “GFP expression in combination with HDACi (MS-275), Jurkat A1 cells” value was “recruited HDACi-insensitive cells into the responding cell population” and the “LTR-controlled GFP expression, Jurkat A1 cells” value is given as “induced LTR activation in a small proportion of cells”.

As a reminder, the IC50 is the concentration that gives 50% inhibition. Low values mean greater potency, high ones weaker potency. One may read the inhibition as the share of the control response that was lost under treatment. Read a high inhibition as a strong effect. For `CC(C)C(C(=O)Nc1ccc(C(=O)NO)cn1)c1ccccc1` (stereo not drawn) [MC 2195], the half-inhibitory concentration (IC50) worked out at 11 nM against Maize HD1-B, 8 nM against Maize HD1-A and 69 nM at mouse HDAC1. For the same compound, the inhibition at 5 µM against IP HDAC1 stood at 46.7%; on IP HDAC4, 93.1%. In addition, in the series with HDACs, the HDACs inhibited result was “Class 1”.

As to `CCC(C(=O)Nc1ccc(/C=C/C(=O)NO)cc1)c1ccccc1` (stereo not drawn) [MC 1864], the IC50 came out at 89 nM against Maize HD1-B, 64 nM on Maize HD1-A and 305 nM against mouse HDAC1. In addition, the results for the inhibition at 5 µM against IP HDAC1 and against IP HDAC4 were 55% and 60.4%, respectively.

Regarding `CC(C(=O)Nc1ccc(/C=C/C(=O)NO)cc1)c1ccccc1` (stereo not drawn) [MC 1857], the values for the 50% inhibitory concentration (IC50) on Maize HD1-B, on Maize HD1-A and against mouse HDAC1 were 72 nM, 80 nM and 291 nM, respectively. At IP HDAC1, this compound displayed an inhibition at 5 µM of 79.3%.

On to `O=C(/C=C/c1ccc(NC(=O)C(c2ccccc2)c2ccccc2)cc1)NO` [MC 1855], for which the half-inhibitory concentration (IC50) at Maize HD1-B was 162 nM; against Maize HD1-A it was 55 nM; at mouse HDAC1, 128 nM. Besides, the figures for the inhibition at 5 µM on IP HDAC1 and against IP HDAC4 were 78.7% and 0%, respectively. The “Selective killing of HIV-1 infected cells versus uninfected counterparts” value in series [4] is given as “selective killing of HIV-1-infected cells”. The HDACs inhibited result in the series on HDACs is recorded as “Class 1”.

For `N.N.[Cl][Pt][Cl]` [cisplatin], the “Concentration range activating latent HIV-1” value in series [3] (cell line models for HIV-1 latency) is recorded as “nanomolar range”. Besides, the “Concentration range activating quiescent HIV-1” value in the series on latent HIV-1 (Spandidos et al., 1990) was “micromolar”.

As for `O=C(CCCCCCC(=O)Nc1ccccc1)NO` [SAHA, suberoylanilide hydroxamic acid], the “LTR-controlled GFP expression, Jurkat A1 cells” value in series [3] (72 h) is recorded as “induction of LTR-controlled expression of green-fluorescent protein (GFP)”.

For the compound `CCC(C(=O)Nc1ccc(/C=C/C(=O)NO)cc1)c1ccc2ccccc2c1` (stereo not drawn) [MC 2113], the IC50 on Maize HD1-B came to 62 nM; on Maize HD1-A, 69 nM; at mouse HDAC1, 560 nM. The values for the inhibition at 5 µM against IP HDAC1 and against IP HDAC4 were 64.9% and 22.4%, respectively. For the same compound, in the series with HDACs, the HDACs inhibited entry is given as “Class 1”.

For `CCC(C(=O)Nc1ccc(/C=C/C(=O)NO)cc1)c1cccc2ccccc12` (stereo not drawn) [MC 2111], the half-inhibitory concentration (IC50) was 58 nM against Maize HD1-B, 42 nM on Maize HD1-A and 620 nM at mouse HDAC1. In addition, the inhibition at 5 µM came to 73.6% against IP HDAC1 and 0% against IP HDAC4. The HDACs inhibited result with HDACs is on record as “Class 1”.

Regarding `O=C([O-])CN(CC(=O)[O-])CC(=O)[O-].[Fe+3]` [FeNTA, iron nitriloacetate], the “Induction … ACH-2 cells” value in [1] is given as “dose-dependently induced HIV-1 replication”.

arsenic trioxide: the “LTR-controlled GFP expression, Jurkat 8.4 cells” value in series [5] is given as “dose-dependent shift in fluorescence”. Further, the “LTR-controlled GFP expression, Jurkat A1 cells” value in [3] (72 h) is “increased in response to arsenic trioxide in a concentration-dependent manner”.

Take `Nc1ccccc1NC(=O)c1ccc(CNC(=O)OCc2cccnc2)cc1` [MS 275]: in series [1] (day 3, concentration-response 0.001-1 μM), the “Concentration range of activity in inducing HIV-1 escape from latency, ACH-2 cells” value is listed as “nanomolar range”. The “Combined HIV-1 promoting effect of HDACi with BSO, ACH-2 cells” value in series [1] (percentage-of-synergism graph, three days) is on record as “synergistic effect”. For the same compound, in [2] (not shown), the “Concentration range of activity in inducing HIV-1 escape from latency, U1 cells” value is “nanomolar range”. Besides, on IP HDAC1, the inhibition at 5 µM was found to be 65.4%. For the same compound, the HDACs inhibited entry with HDACs was “Class 1”.

On to `O=C(/C=C/c1ccc(NC(=O)C(Cc2ccccc2)c2ccccc2)cc1)NO` (stereo not drawn) [MC 1895, 3-[4-(2,3-Diphenylpropionylamino)phenyl]-N-hydroxy-2-propenamide], for which the 50% inhibitory concentration (IC50) at Maize HD1-B was found to be 133 nM; at Maize HD1-A, 74 nM; at mouse HDAC1 it was 83 nM. For the same compound, the figures for the inhibition at 5 µM against IP HDAC1 and on IP HDAC4 were 72.5% and 16.1%, respectively. Also, the HDACs inhibited result in the series with HDACs is “Class 1”.

Take `CCCC(CCC)C(=O)O` [VA, valproic acid]: the “EC50, HIV-1 escape from latency” value in the series with latent HIV-1 is on record as “millimolar range”.
